How the values were obtained:
BE(2)-C Cells = experiment: BE(2)-C cell proliferation assay (MTS); assay type: cell-based; settings: Homo sapiens, compound treatment 72 hours
Protocol: BE(2)-C Cells were plated in 96-well plates with 150 μl culture medium at cell density of 5000 cells/well. Compounds dilution: 20 mM stock solution of all compounds in DMSO. On the day of treatment, compounds were fresh diluted from the stock solution to a working solution (4× of final concentrations) in culture medium. 50 μl of compound mixtures were added to duplicate wells along with 150 μl of cells. 24 hours after BE(2)-C cells were plated, testing compounds were added. Cell proliferation was measured by MTS assay following manufacturer's instruction after compound treatment for 72 hours.

COLO-205 cells = experiment: COLO-205 cell proliferation assay (MTS), mechanism-based assay for CDK4/6 inhibition; settings: Homo sapiens, compound treatment 48 h, MTS absorbance 490 nm, read-out: COLO205 IC50
Protocol: To investigate whether a compound is able to inhibit the activity of CDK4/6 in cells, a mechanism-based assay using COLO-205 cell was developed. In this assay, inhibition of CDK4/6 was detected by the inhibition of COLO-205 cells proliferation. COLO-205 cells were cultured in culture flasks to 40-80% confluence in RPMI-1640 plus 10% fetal bovine serum. Cells were collected and plated onto 96-well plates at desired cell density (2000 cells/well). Plates were incubated overnight at 37° C., with 5% CO2 to adhere. Compounds were added to the plates, the final compound concentrations were […], 123.5, 41.2, 13.7, 4.6 and 1.5 nM. Place plates at 37° C., with 5% CO2 for 48 h. After removing the medium, 20 μl MTS/100 μl medium mixture solution were added to each well and incubate the plates for exactly 1.5 hours. Stop the reaction by adding 25 μl 10% SDS per well. Measure absorbance at 490 nm and 650 nm (reference wavelength). IC50 was calculated using GraphPad Prism 5.0.

SMILES: CN(C)C(=O)c1sc2cnc(Nc3ccc(N4CCNCC4)cn3)nc2c1C1CCCC1 [Example 1, 7-Cyclopentyl-N,N-dimethyl-2-(5-(piperazin-1-yl)pyridin-2-ylamino)thieno[3,2-d]pyrimidine-6-carboxamide]
- IC50 (BE(2)-C Cells): 38.5 nM
- IC50 (COLO-205 cells): 1110 nM

SMILES: CN1CCN(c2ccc(Nc3ncc4sc(C(=O)N(C)C)c(C5CCCC5)c4n3)nc2)CC1 [Example 2, 7-Cyclopentyl-N,N-dimethyl-2-(5-(4-methylpiperazin-1-yl)pyridin-2-ylamino)thieno[3,2-d]pyrimidine-6-carboxamide]
- IC50 (BE(2)-C Cells): 24.1 nM
- IC50 (COLO-205 cells): 339 nM

SMILES: CN(C)C(=O)c1cc2cnc(Nc3ccc(N4CCNCC4)cn3)nn2c1C1CCCC1 [Example 5, 7-cyclopentyl-N,N-dimethyl-2-((5-(piperazin-1-yl)pyridin-2-yl)amino)pyrrolo[2,1-f][1,2,4]triazine-6-carboxamide]
- IC50 (BE(2)-C Cells): 601 nM
- IC50 (COLO-205 cells): 517 nM

SMILES: CN(C)C(=O)c1oc2cnc(Nc3ccc(N4CCNCC4)cn3)nc2c1C1CCCC1 [Example 7, 7-cyclopentyl-N,N-dimethyl-2-((5-(piperazin-1-yl)pyridin-2-yl)amino)furo[3,2-d]pyrimidine-6-carboxamide]
- IC50 (COLO-205 cells): 711 nM

SMILES: NC(=O)c1sc2cnc(Nc3ccc(N4CCNCC4)cn3)nc2c1C1CCCC1 [Example 73, 7-cyclopentyl-2-((5-(piperazin-1-yl)pyridin-2-yl)amino)thieno[3,2-d]pyrimidine-6-carboxamide]
- IC50 (COLO-205 cells): 624 nM

SMILES: CN(C)C(=O)c1sc2cnc(Nc3ccc4c(n3)CCNC4)nc2c1[C@H]1CC[C@H](C)CC1 [Example 87, N,N-dimethyl-7-((1r,4r)-4-methylcyclohexyl)-2-((5,6,7,8-tetrahydro-1,6-naphthyridin-2-yl)amino)thieno[3,2-d]pyrimidine-6-carboxamide]
- IC50 (COLO-205 cells): 450 nM

SMILES: CN1CCc2nc(Nc3ncc4sc(C(=O)N(C)C)c([C@H]5CC[C@H](C)CC5)c4n3)ccc2C1 [Example 88, N,N-dimethyl-2-((6-methyl-5,6,7,8-tetrahydro-1,6-naphthyridin-2-yl)amino)-7-((1r,4r)-4-methylcyclohexyl)thieno[3,2-d]pyrimidine-6-carboxamide]
- IC50 (COLO-205 cells): 855 nM

SMILES: CC(=O)N1CCc2nc(Nc3ncc4sc(C(=O)N(C)C)c([C@H]5CC[C@H](C)CC5)c4n3)ccc2C1 [Example 89, 2-((6-acetyl-5,6,7,8-tetrahydro-1,6-naphthyridin-2-yl)amino)-N,N-dimethyl-7-((1r,4r)-4-methylcyclohexyl)thieno[3,2-d]pyrimidine-6-carboxamide]
- IC50 (COLO-205 cells): 389 nM

SMILES: CN(C)C(=O)c1sc2cnc(Nc3ccc4c(n3)CCN(C(=O)CO)C4)nc2c1[C@H]1CC[C@H](C)CC1 [Example 90, 2-((6-(2-hydroxyacetyl)-5,6,7,8-tetrahydro-1,6-naphthyridin-2-yl)amino)-N,N-dimethyl-7-((1r,4r)-4-methylcyclohexyl)thieno[3,2-d]pyrimidine-6-carboxamide]
- IC50 (COLO-205 cells): 270 nM

SMILES: CN(C)C(=O)c1sc2cnc(Nc3ccc(N4CCNCC4)nn3)nc2c1[C@H]1CC[C@H](C)CC1 [Example 91, N,N-dimethyl-7-((1r,4r)-4-methylcyclohexyl)-2-((6-(piperazin-1-yl)pyridazin-3-yl)amino)thieno[3,2-d]pyrimidine-6-carboxamide]
- IC50 (COLO-205 cells): 223 nM
